# The source made the active and inactive calls. The rule behind the calls is not given here.
# Legend:
# [1] = Displacement of [3H]CNQX from AMPA receptor on rat brain homogenate; type: tissue-based
# Mus musculus [2] = experiment: Anticonvulsant activity in DBA/2 mouse assessed as protection from audiogenic seizures at 30 mg/kg, ip measured 1 hr post administration; type: functional, organism-based; design: dose 30 mg/kg
# Mus musculus [3] = experiment: Anticonvulsant activity in DBA/2 mouse assessed as protection from audiogenic seizures at 30 mg/kg, po measured 1 hr post administration; type: functional
# [4] = Oral bioavailability in DBA/2 mouse at 30 mg/kg; type: ADME, organism-based; settings: in vivo
# [5] = Clearance in DBA/2 mouse at 30 mg/kg; type: ADME, organism-based; design: dose 30 mg/kg; settings: in vivo
# Mus musculus [6] = experiment: Anticonvulsant activity against po dosed electric-shock mouse model assessed as inhibition of convulsion in hind legs measured 2 hrs post administration; type: functional
# Mus musculus [7] = experiment: Anticonvulsant activity against po dosed electric-shock mouse model assessed as inhibition of convulsion in hind legs at 50 mg/kg, po measured 4 hrs post administration; type: functional
# Mus musculus [8] = experiment: Anticonvulsant activity in orally dosed DBA/2 mouse assessed as protection from tonic seizures measured 1 hr post administration; settings: DBA/2, po
# Mus musculus [9] = experiment: Anticonvulsant activity in intraperitoneally dosed DBA/2 mouse assessed as protection from tonic seizures measured 1 hr post administration; type: functional; settings: DBA/2, ip
# Mus musculus [10] = experiment: Anticonvulsant activity in DBA/2 mouse assessed as protection from audiogenic seizures at 10 mg/kg, po measured 1 hr post administration; type: functional
structure (smiles),measurement,setting,value
CNC(=O)c1ncn(-c2cc3c(=O)n(NS(C)(=O)=O)c(=O)[nH]c3cc2C(F)(F)F)n1,IC50,[1],0.11 µM
CS(=O)(=O)Nn1c(=O)[nH]c2cc(C(F)(F)F)c(N)cc2c1=O,IC50,[1],1.2 µM
CS(=O)(=O)Nn1c(=O)[nH]c2cc([N+](=O)[O-])c(-n3ccnc3)cc2c1=O,IC50,[1],0.081 µM
same,Activity,Mus musculus [2],Active
same,Activity,Mus musculus [3],inactive
CCNc1cc2c(=O)n(NS(C)(=O)=O)c(=O)[nH]c2cc1C(F)(F)F,IC50,[1],1 µM
same,Activity,Mus musculus [3],53%
CS(=O)(=O)Nn1c(=O)[nH]c2cc(C(F)(F)F)c(-n3ccnc3)cc2c1=O,IC50,[1],0.044 µM
same,Activity,Mus musculus [2],Active
same,Activity,Mus musculus [3],inactive
CS(=O)(=O)Nn1c(=O)[nH]c2cc(C(F)(F)F)c(N3CCCOCC3)cc2c1=O,IC50,[1],0.36 µM
same,bioavailability,[4],100%
same,clearance,[5],10.2 mL/min/kg
same,ED50,Mus musculus [6],10.5 mg/kg
same,inhibition in vivo at 50 mg/kg,Mus musculus [7],20%
same,ED50,Mus musculus [8],5.5 mg/kg
CN(C)C(=O)c1ncn(-c2cc3c(=O)n(NS(C)(=O)=O)c(=O)[nH]c3cc2C(F)(F)F)n1,IC50,[1],1.02 µM
CN(C)C(=O)c1cn(-c2cc3c(=O)n(NS(C)(=O)=O)c(=O)[nH]c3cc2C(F)(F)F)cn1,IC50,[1],0.42 µM
CS(=O)(=O)Nn1c(=O)[nH]c2cc(C(F)(F)F)c(-n3cccc3)cc2c1=O,IC50,[1],0.165 µM
CS(=O)(=O)Nn1c(=O)[nH]c2cc(C(F)(F)F)c(N3CCOCC3)cc2c1=O,IC50,[1],0.5 µM
same,ED50,Mus musculus [9],58 mg/kg
same,bioavailability,[4],100%
same,clearance,[5],135 mL/min/kg
CNC(=O)c1cn(-c2cc3c(=O)n(NS(C)(=O)=O)c(=O)[nH]c3cc2C(F)(F)F)cn1,Activity,Mus musculus [2],Active
same,Activity,Mus musculus [3],inactive
same,bioavailability,[4],10%
CS(=O)(=O)Nn1c(=O)[nH]c2cc(C(F)(F)F)c(NCCO)cc2c1=O,IC50,[1],0.55 µM
same,Activity,Mus musculus [10],20%
CS(=O)(=O)Nn1c(=O)[nH]c2cc(C(F)(F)F)c(-n3cnnc3)cc2c1=O,IC50,[1],0.046 µM
same,Activity,Mus musculus [2],Active
same,Activity,Mus musculus [3],inactive
same,ED50,Mus musculus [9],0.94 mg/kg
same,bioavailability,[4],10%
CN(CCO)c1cc2c(=O)n(NS(C)(=O)=O)c(=O)[nH]c2cc1C(F)(F)F,IC50,[1],0.25 µM
same,ED50,Mus musculus [9],7.9 mg/kg
same,bioavailability,[4],100%
same,clearance,[5],49 mL/min/kg

# — ChEMBL document CHEMBL1938360, “6-Amino quinazolinedione sulfonamides as orally active competitive AMPA receptor antagonists” (Bioorg Med Chem Lett, 2012)
